We go through 1 molecule from patent US20210348120A1, “Polarised Three-Dimensional Cellular Aggregates” (CAMBRIDGE ENTERPRISE LIMITED, priority 2018, published 2021).

This test relates to gastruloid cardiac portion. The test can be described thus: Calcium imaging of the gastruloid cardiac portion. In kind it is cell-based, mouse. The note with it: 168 h gastruloids, 1 μM, light sheet imaging with Cal-520. The method, then: To image calcium fluxes, gastruloids were incubated for 1 h with 8 μM Cal-520 (AAT Bioquest) at 37° C., 5% CO2. Gastruloids were then transferred to fresh medium before imaging. Imaging was performed with a Light sheet Z1 microscope (Zeiss) equipped with an environmental chamber to maintain gastruloids at 37° C. and 5% CO2. For imaging, gastruloids were embedded in 1% low melt agarose and the chamber was filled with culture medium. Nifidepine (Sigma Aldrich, 10 μM) and Isoproterenol (Isoprenaline hydrochloride, Sigma 15627, 1 μM) were added with a syringe directly to the imaging chamber during acquisition. The analysis of calcium spikes was performed with the Fiji Stacks-plot Z-Axis profile plugin. The baseline intensity was normalized to the minimum value over 10 sec.

Structures are written as SMILES.

On to `CC(C)NCC(O)c1ccc(O)c(O)c1` (stereo not shown) [isoproterenol, Isoproterenol], for which the calcium spiking frequency result was “increase in spiking frequency”.
